ChEMBL document CHEMBL5046296 (J Med Chem, 2022)

How the values were obtained:
[1] = molecular target: T1, AP2-associated protein kinase 1 (Homo sapiens, UniProt Q2M2I8); assay: Inhibition of GST-Xa tagged human AAK1 (30 to 330 residues) expresssed in bacteria using (5-FAM)-Aha-KEEQSQITSQVTGQIGWR-NH2 peptide as substrate incubated for 3 hrs in presence of ATP by electrophoretic analysis
[2] = Displacement of 3H-LP-927443 from AAK1 in mouse brain membrane homogenate assessed as inhibition constant at 1 uM incubated for 1 hr by liquid scintillation counter analysis; assay type: cell membranes
[3] = molecular target: T1, AP2-associated protein kinase 1; assay: Inhibition of […] in HEK293F cells assessed as reduction in phospho mu2 formation incubated for 3 hrs by Western blot analysis; assay type: cell-based
[4] = molecular target: Cytochrome P450 3A4 (Homo sapiens, UniProt P08684); assay: Inhibition of CYP3A4 (unknown origin) using BFC as substrate; assay type: ADME
[5] = molecular target: Cytochrome P450 (Homo sapiens, UniProt P04798+P05177+P05181+P08684+P10632+P10635+P11509+P11712+P13584+P20813+P20815+P20853+P24462+P24903+P33260+P33261+P51589+P78329+P98187+Q02928+Q08477+Q16678+Q16696+Q5TCH4+Q6VVX0+Q7Z449+Q8TAV3+Q96SQ9+Q9HB55); assay: Metabolic stability in human liver microsomes assessed as CYP450-mediated metabolism by measuring parent compound remaining at 0.5 uM incubated for 10 mins in presence of NADPH by LC-MS/MS analysis; assay type: ADME; conditions: read-out: Stability
[6] = Metabolic stability in rat liver microsomes assessed as CYP450-mediated metabolism by measuring parent compound remaining at 0.5 uM incubated for 10 mins in presence of NADPH by LC-MS/MS analysis; assay type: ADME; conditions: read-out: Stability
[7] = Metabolic stability in mouse liver microsomes assessed as CYP450-mediated metabolism by measuring parent compound remaining at 0.5 uM incubated for 10 mins in presence of NADPH by LC-MS/MS analysis; assay type: ADME; conditions: read-out: Stability
[8] = Protein binding in human plasma assessed as unbound fraction at 10 uM measured after 5 hrs by LC-MS/MS analysis; assay type: ADME, cell-free
[9] = Protein binding in rat plasma assessed as unbound fraction at 10 uM measured after 5 hrs by LC-MS/MS analysis; assay type: ADME, cell-free
[10] = Protein binding in mouse plasma assessed as unbound fraction at 10 uM measured after 5 hrs by LC-MS/MS analysis; assay type: ADME, cell-free
[11] = Permeability of compound at pH 5.5 measured after 4 hrs by PAMPA assay; assay type: ADME; conditions: read-out: permeability
[12] = Permeability of compound at pH 7.4 measured after 4 hrs by PAMPA assay; assay type: ADME; conditions: read-out: permeability
[13] = Permeability across apical to basolateral side in human Caco-2 cells at 3 uM measured after 2 hrs by LC-MS/MS analysis; assay type: ADME, cell-based; conditions: read-out: permeability
[14] = Permeability across basolateral to apical side in human Caco-2 cells at 3 uM measured after 2 hrs by LC-MS/MS analysis; assay type: ADME, cell-based; conditions: read-out: permeability
[15] = tested on: Aorta; assay: Cardiotoxicity in rat aortic ring assessed as relaxation of phenylephrine induced aortic ring contraction at 10 uM incubated for 1 hr; assay type: toxicity, tissue-based; design: scale not given: the % may be the effect or the level left
[16] = tested on: Rattus norvegicus; assay: Analgesic activity in streptozotocin induced diabetic peripheral neuropathic mechanical allodynia in overnight fasted Sprague-Dawley rat model assessed as reduction in pain response at 1 mg/kg, po measured after 5.5 hrs post treatment; assay type: functional; design: scale not given: the % may be the effect or the level left
[17] = Cmax in plasma of overnight fasted Sprague-Dawley rat model of streptozotocin induced diabetic peripheral neuropathic mechanical allodynia at 1 mg/kg, po measured after 5.5 hrs; assay type: ADME, organism-based; design: route oral, time 5.5 hrs, dose 1 mg/kg
[18] = Drug concentration in brain of overnight fasted Sprague-Dawley rat model of streptozotocin induced diabetic peripheral neuropathic mechanical allodynia at 1 mg/kg, po measured after 5.5 hrs; assay type: ADME, organism-based; conditions: read-out: Ct
[19] = Drug concentration in streptozotocin induced diabetic peripheral neuropathic mechanical allodynia in overnight fasted Sprague-Dawley rat spinal cord at 1 mg/kg, po measured after 5.5 hrs; assay type: ADME, organism-based; conditions: read-out: Ct
[20] = Ratio of drug concentration in brain to plasma in streptozotocin induced diabetic peripheral neuropathic mechanical allodynia in overnight fasted Sprague-Dawley rat at 1 mg/kg, po measured after 5.5 hrs; assay type: ADME, organism-based
[21] = molecular target: MAP kinase-interacting serine/threonine-protein kinase 2 (Homo sapiens, UniProt Q9HBH9); assay: Inhibition of MNK2 (unknown origin)
[22] = molecular target: Glycogen synthase kinase-3 alpha (Homo sapiens, UniProt P49840); assay: Inhibition of GSK3A (unknown origin)
[23] = molecular target: cGMP-dependent protein kinase 2 (Homo sapiens, UniProt Q13237); assay: Inhibition of PKG2 (unknown origin)
Chain of cGMP-dependent protein kinase 2 (Q13237 whole entry): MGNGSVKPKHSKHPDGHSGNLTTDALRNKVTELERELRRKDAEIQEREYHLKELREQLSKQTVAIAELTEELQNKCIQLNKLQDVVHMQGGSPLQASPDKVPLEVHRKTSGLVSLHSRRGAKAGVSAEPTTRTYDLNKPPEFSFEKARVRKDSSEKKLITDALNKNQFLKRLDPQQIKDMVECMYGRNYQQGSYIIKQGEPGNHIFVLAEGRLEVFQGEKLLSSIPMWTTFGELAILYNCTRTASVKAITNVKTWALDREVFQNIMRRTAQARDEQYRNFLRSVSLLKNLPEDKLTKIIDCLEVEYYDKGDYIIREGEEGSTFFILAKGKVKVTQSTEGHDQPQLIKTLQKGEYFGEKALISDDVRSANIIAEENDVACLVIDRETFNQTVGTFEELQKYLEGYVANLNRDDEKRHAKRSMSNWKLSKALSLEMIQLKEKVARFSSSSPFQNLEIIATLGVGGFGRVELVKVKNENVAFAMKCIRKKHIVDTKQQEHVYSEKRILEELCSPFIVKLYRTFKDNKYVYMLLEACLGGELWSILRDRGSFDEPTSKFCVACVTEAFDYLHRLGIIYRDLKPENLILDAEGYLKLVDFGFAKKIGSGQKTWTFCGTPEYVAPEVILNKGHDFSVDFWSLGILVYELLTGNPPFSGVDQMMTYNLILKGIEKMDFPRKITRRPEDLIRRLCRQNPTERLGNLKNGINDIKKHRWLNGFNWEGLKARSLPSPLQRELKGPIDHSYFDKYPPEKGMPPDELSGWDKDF

Chain of Cytochrome P450 3A4 (P08684 whole entry): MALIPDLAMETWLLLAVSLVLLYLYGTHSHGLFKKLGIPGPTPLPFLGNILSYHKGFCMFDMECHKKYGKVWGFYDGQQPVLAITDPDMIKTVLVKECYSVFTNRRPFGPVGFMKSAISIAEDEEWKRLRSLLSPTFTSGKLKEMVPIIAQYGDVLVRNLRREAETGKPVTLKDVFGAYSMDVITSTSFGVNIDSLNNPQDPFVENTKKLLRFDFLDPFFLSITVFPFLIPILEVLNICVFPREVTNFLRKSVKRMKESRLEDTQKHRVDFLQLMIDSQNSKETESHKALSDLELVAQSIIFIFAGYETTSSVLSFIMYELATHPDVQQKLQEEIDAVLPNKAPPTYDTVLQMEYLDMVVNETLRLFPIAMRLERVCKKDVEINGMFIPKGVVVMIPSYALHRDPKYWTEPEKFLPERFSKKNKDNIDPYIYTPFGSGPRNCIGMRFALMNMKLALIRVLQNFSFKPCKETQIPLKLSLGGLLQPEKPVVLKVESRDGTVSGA
T1 sequence (Q2M2I8 whole entry, the tested form may be a part): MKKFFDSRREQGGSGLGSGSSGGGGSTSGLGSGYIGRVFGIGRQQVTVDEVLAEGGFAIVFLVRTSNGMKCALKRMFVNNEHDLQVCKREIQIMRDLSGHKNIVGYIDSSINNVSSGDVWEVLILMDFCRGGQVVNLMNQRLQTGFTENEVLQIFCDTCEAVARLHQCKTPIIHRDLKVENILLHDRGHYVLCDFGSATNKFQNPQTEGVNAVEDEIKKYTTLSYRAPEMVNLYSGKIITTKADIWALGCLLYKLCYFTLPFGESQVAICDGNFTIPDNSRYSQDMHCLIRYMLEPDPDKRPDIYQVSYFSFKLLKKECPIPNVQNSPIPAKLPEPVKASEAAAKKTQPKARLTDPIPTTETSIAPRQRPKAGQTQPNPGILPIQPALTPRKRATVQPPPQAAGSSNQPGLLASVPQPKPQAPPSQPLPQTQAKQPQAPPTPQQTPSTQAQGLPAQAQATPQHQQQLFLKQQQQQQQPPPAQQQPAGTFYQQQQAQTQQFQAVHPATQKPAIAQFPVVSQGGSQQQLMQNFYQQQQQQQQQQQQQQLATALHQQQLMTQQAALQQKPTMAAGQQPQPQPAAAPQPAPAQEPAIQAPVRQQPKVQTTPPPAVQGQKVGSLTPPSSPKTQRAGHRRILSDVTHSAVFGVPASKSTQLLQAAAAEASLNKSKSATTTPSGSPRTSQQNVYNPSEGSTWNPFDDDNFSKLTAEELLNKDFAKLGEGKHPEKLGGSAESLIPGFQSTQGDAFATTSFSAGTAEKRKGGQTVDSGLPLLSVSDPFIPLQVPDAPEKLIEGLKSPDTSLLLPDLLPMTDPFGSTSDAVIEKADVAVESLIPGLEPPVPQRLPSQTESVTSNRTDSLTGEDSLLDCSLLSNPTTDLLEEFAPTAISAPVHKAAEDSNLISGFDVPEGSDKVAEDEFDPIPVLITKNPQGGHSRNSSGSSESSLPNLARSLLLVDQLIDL
Chain of MAP kinase-interacting serine/threonine-protein kinase 2 (Q9HBH9 whole entry): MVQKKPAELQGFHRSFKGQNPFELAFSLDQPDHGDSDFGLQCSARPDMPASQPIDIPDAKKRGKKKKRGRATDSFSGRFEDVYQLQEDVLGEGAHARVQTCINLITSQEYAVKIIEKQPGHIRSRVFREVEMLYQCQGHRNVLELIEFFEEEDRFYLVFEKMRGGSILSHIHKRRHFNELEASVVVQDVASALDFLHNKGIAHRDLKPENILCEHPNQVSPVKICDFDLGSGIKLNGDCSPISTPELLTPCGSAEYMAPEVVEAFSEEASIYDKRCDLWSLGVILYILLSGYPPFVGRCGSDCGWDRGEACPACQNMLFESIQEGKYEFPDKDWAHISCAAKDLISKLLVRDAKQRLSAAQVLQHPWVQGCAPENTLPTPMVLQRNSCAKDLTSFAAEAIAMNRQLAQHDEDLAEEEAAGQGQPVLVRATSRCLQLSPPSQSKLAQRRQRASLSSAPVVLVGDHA
Chain of Glycogen synthase kinase-3 alpha (P49840 whole entry): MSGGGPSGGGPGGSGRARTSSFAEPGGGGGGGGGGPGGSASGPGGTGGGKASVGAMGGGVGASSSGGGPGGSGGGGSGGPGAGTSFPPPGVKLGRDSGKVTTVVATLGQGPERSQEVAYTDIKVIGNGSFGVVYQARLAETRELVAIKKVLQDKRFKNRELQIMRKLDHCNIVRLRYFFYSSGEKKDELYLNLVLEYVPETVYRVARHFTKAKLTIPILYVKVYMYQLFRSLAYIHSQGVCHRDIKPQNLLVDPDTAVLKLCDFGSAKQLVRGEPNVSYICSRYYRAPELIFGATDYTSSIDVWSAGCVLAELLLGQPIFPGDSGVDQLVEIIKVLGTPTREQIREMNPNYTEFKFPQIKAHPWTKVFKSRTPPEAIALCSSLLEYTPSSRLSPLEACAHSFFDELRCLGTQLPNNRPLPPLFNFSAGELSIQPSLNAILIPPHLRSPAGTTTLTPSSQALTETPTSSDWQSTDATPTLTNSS

Q: What does the source list for `Cc1cc(-c2ccc(OC[C@@](C)(N)CC(C)C)c(C(F)(F)F)c2)ccn1`?
A: IC50 [1]: 0.9 nM; Ki [2]: 0.22 nM; IC50 [3]: 25 nM; IC50 [4]: > 20000 nM; remaining at 10 min, 0.5 µM [5]: 89%; remaining at 10 min, 0.5 µM [6]: 86%; remaining at 10 min, 0.5 µM [7]: 66%; fraction unbound at 5 h, 10 µM [8]: 0.02; fraction unbound at 5 h, 10 µM [9]: 0.026; fraction unbound at 5 h, 10 µM [10]: 0.017; Papp at 4 h [11]: 36 ×10⁻⁶ cm/s; Papp at 4 h [12]: 30.5 ×10⁻⁶ cm/s; Papp A→B at 2 h, 3 µM [13]: 7.1 ×10⁻⁶ cm/s; Papp B→A at 2 h, 3 µM [14]: 5.9 ×10⁻⁶ cm/s; Activity [15]: 69%

Q: Which results are given for `CC(C)C[C@](C)(N)COc1ccc(-c2ccncc2)cc1C(F)(F)F`?
A: IC50 [1]: 0.6 nM; Ki [2]: 0.17 nM; IC50 [3]: 29 nM; IC50 [4]: 630 nM

Q: For `CC(C)C[C@](C)(N)COc1ncc(-c2ccnc(C(F)F)c2)cc1C#N`, which Activity [15] is on record?
A: 50%

Q: For `Cc1cc(-c2cnc(OC[C@@](C)(N)CC(C)C)c(C#N)c2)ccn1`, which Activity [15] is on record?
A: 28%

Q: For `CC(C)C[C@H](N)COc1ccc(-c2ccncc2)cc1`, which IC50 [4] is on record?
A: 8700 nM

Q: Which IC50 [4] does the source give for `CC(C)C[C@H](N)COc1ccc(-c2ccnc(C(F)(F)F)c2)cc1C#N` here?
A: 1300 nM

Q: What does the source list for `CC(C)C[C@](C)(N)COc1ncc(-c2ccnc(Cl)c2)cc1C(F)F`?
A: IC50 [1]: 3.1 nM; IC50 [3]: 9.1 nM; remaining at 10 min, 0.5 µM [5]: 89%; remaining at 10 min, 0.5 µM [6]: 88%; remaining at 10 min, 0.5 µM [7]: 76%

Q: What does the source list for `Cc1cc(-c2cnc(OC[C@@](C)(N)CC(C)C)c(C(F)F)c2)ccn1`?
A: IC50 [1]: 1.9 nM; remaining at 10 min, 0.5 µM [5]: 43%; remaining at 10 min, 0.5 µM [6]: 65%; remaining at 10 min, 0.5 µM [7]: 43%

Q: What does the source list for `CC(C)C[C@](C)(N)COc1ccc(-c2ccnc(C(F)F)c2)cc1C(F)(F)F`?
A: IC50 [1]: 0.6 nM; Ki [2]: 0.07 nM; IC50 [3]: 7.8 nM; IC50 [4]: 18000 nM; remaining at 10 min, 0.5 µM [5]: 94%; remaining at 10 min, 0.5 µM [6]: 92%; remaining at 10 min, 0.5 µM [7]: 98%; fraction unbound at 5 h, 10 µM [8]: 0.008; fraction unbound at 5 h, 10 µM [9]: 0.004; fraction unbound at 5 h, 10 µM [10]: 0.002; Papp at 4 h [11]: 33.9 ×10⁻⁶ cm/s; Papp at 4 h [12]: 55 ×10⁻⁶ cm/s; Papp A→B at 2 h, 3 µM [13]: 3.3 ×10⁻⁶ cm/s; Papp B→A at 2 h, 3 µM [14]: 1.7 ×10⁻⁶ cm/s; Activity [16]: 30%; Cmax [17]: 80 nM; concentration at 5.5 h [18]: 880 nM; concentration at 5.5 h [19]: 510 nM; Kp at 5.5 h [20]: 11; IC50 [21]: 380 nM; IC50 [22]: 1700 nM; IC50 [23]: 380 nM

Q: With `CC(C)C[C@](C)(N)COc1ccc(-c2ccnc(C(F)F)c2)nc1Cl` as the compound, how does the Activity [15] read?
A: 64%

Q: What does the source list for `CC(C)C[C@](C)(N)COc1ccc(-c2ccnc(C(F)F)c2)cc1C#N`?
A: IC50 [1]: 0.6 nM; Ki [2]: 0.25 nM; IC50 [3]: 6.4 nM; IC50 [4]: > 20000 nM; remaining at 10 min, 0.5 µM [5]: 85%; remaining at 10 min, 0.5 µM [6]: 71%; remaining at 10 min, 0.5 µM [7]: 97%; fraction unbound at 5 h, 10 µM [8]: 0.14; fraction unbound at 5 h, 10 µM [9]: 0.14; fraction unbound at 5 h, 10 µM [10]: 0.079; Papp at 4 h [11]: 68.1 ×10⁻⁶ cm/s; Papp at 4 h [12]: 68.7 ×10⁻⁶ cm/s; Papp A→B at 2 h, 3 µM [13]: 22.2 ×10⁻⁶ cm/s; Papp B→A at 2 h, 3 µM [14]: 17.7 ×10⁻⁶ cm/s; Activity [15]: 100%
